# Patent US20260167673A1, “NOVEL POLYPEPTIDE, POLYPEPTIDE DERIVATIVE AND USE THEREOF” (NANJING ANJI BIOTECHNOLOGY CO., LTD., priority 2023, published 2026)
# Where no end group is shown, it is not given here.
# Legend:
# [1] = tested on: human liver cancer cells HCCLM3; experiment: CCK8 proliferation inhibition, HCCLM3; type: cell-based; conditions: HCCLM3, 50 μM, 48 h
# Protocol: (§1) Incubation was continued for 4 h in a cell incubator, an absorbance was measured at 450 nm, and a proliferation inhibition was calculated. Data was presented as mean±SD, and GraphPad Prism 5.0 statistical software was used. A t-test was used for comparison between two groups, while One-way Anova (Dunnett) was used for comparison among a plurality of groups.
# [2] = tested on: human esophageal cancer cells TE-13; experiment: CCK8 proliferation inhibition, TE-13; type: cell-based; conditions: TE-13, 50 μM, 48 h
# Protocol: as §1
# [3] = tested on: human endometrial cancer cells RL-952; experiment: CCK8 proliferation inhibition, RL-952; type: cell-based; conditions: RL-952, 50 μM, 48 h
# Protocol: as §1
# [4] = tested on: human uterine epidermal cancer cells MS751; experiment: CCK8 proliferation inhibition, MS751; type: cell-based; conditions: MS751, 50 μM, 48 h
# Protocol: as §1
# [5] = tested on: human histiocytic lymphoma cells U937; experiment: CCK8 proliferation inhibition, U937; type: cell-based; conditions: U937, 50 μM, 48 h
# Protocol: as §1
# [6] = tested on: human non-small cell lung cancer cells A549; experiment: CCK8 proliferation inhibition, A549; type: cell-based; conditions: A549, 50 μM, 48 h
# Protocol: as §1
# [7] = tested on: human lymphoma cells Raji; experiment: CCK8 proliferation inhibition, Raji; type: cell-based; conditions: 50 μM, 48 h
# Protocol: as §1
# [8] = tested on: human oral epidermoid carcinoma cells KB; experiment: CCK8 proliferation inhibition, KB; type: cell-based; conditions: 50 μM, 48 h
# Protocol: as §1
# [9] = tested on: human promyelocytic leukemia cells HL60; experiment: CCK8 proliferation inhibition, HL60; type: cell-based; conditions: HL60, 50 μM, 48 h
# Protocol: as §1
# [10] = tested on: human malignant melanoma cells A375; experiment: CCK8 proliferation inhibition, A375; type: cell-based; conditions: A375, 50 μM, 48 h
# Protocol: as §1
# [11] = tested on: human small intestine cancer cells HIC; experiment: CCK8 proliferation inhibition, HIC; type: cell-based; conditions: 50 μM, 48 h
# Protocol: as §1
# [12] = tested on: human colon cancer cells SW480; experiment: CCK8 proliferation inhibition, SW480; type: cell-based; conditions: SW480, 50 μM, 48 h
# Protocol: as §1
# [13] = tested on: human malignant melanoma cells SK-mel-2; experiment: CCK8 proliferation inhibition, SK-mel-2; type: cell-based; conditions: SK-mel-2, 50 μM, 48 h
# Protocol: as §1
# [14] = tested on: human bladder cancer cells EJ; experiment: CCK8 proliferation inhibition, EJ; type: cell-based; conditions: 50 μM, 48 h
# Protocol: as §1
# [15] = tested on: human ovarian clear cell carcinoma cells ES-2; experiment: CCK8 proliferation inhibition, ES-2; type: cell-based; conditions: ES-2, 50 μM, 48 h
# Protocol: as §1
# [16] = tested on: subcutaneous transplanted tumor model of tongue squamous cell carcinoma cells CAL27; experiment: CAL27 subcutaneous transplanted tumor model (Example 7); type: in vivo, BALB/c nude mice; conditions: 2.7 μM/kg, FIG. 10
# Protocol: (1) A large number of human tongue squamous cell carcinoma CAL27 cells were cultured and digested with a 0.25% trypsin solution. After digestion was terminated, a cell suspension was centrifuged at 1000 rpm for 5 min, and the cells were resuspended in a serum-free DMEM culture medium and counted. The cell concentration was adjusted to 5×10^7 cells/mL.
# (2) BALB/c nude mice (4-6 week old, female, weighing 14-16 g, adaptively fed in an SPF animal feeding room for 1 week) were inoculated with 100 μL of cell suspensions of corresponding groups under the left axilla, with an injection volume of 5×10^6 cells/mouse;
# (3) After inoculation, the tumor growth at the inoculation sites of the nude mice was closely observed. On the 7th day after inoculation, white nodules appeared at the inoculation sites and could move subcutaneously upon touch. As the tumor tissues grew, hard tumor blocks gradually formed at the inoculation sites, and the average volume of the tumor tissues reached 80 mm^3 in about 14 days. The BALB/c nude mice were randomly divided into 3 groups (a normal saline group served as a blank control, and the dose of the micropeptide HMMW and the novel polypeptide HMMW15-51 was 2.7 μM/kg), with 10 mice in the blank group and 6 mice in each other group. […]
# (4) The volume of the transplanted tumor was measured and recorded every three days. […]
# [17] = tested on: human bladder transitional cell carcinoma cells T24; experiment: CCK8 proliferation inhibition, T24; type: cell-based; conditions: T24, 50 μM, 48 h
# Protocol: as §1
# [18] = tested on: human T lymphoblastic leukemia cells Jurkat, Clone E6-1; experiment: CCK8 proliferation inhibition, Jurkat, Clone E6-1; type: cell-based; conditions: Clone E6-1, 50 μM, 48 h
# Protocol: as §1
# [19] = tested on: human fibrosarcoma cells HT-1080; experiment: CCK8 proliferation inhibition, HT-1080; type: cell-based; conditions: HT-1080, 50 μM, 48 h
# Protocol: as §1
# [20] = tested on: human cervical cancer epithelial cells CaSki; experiment: CCK8 proliferation inhibition, CaSki; type: cell-based; conditions: 50 μM, 48 h
# Protocol: as §1
# [21] = tested on: human colon cancer cells HT29; experiment: CCK8 proliferation inhibition, HT29; type: cell-based; conditions: HT29, 50 μM, 48 h
# Protocol: as §1
# [22] = tested on: human neuroblastoma cells SH-SY5Y; experiment: CCK8 proliferation inhibition, SH-SY5Y; type: cell-based; conditions: 50 μM, 48 h
# Protocol: as §1
# [23] = tested on: human osteosarcoma cells MG63; experiment: CCK8 proliferation inhibition, MG63; type: cell-based; conditions: MG63, 50 μM, 48 h
# Protocol: as §1
sequence,measurement,setting,value
MERAGVPGFSPRRSSVEAKMQSTSCSVRKSSTVTAWPAVVLLLSWGQRRGG [HMMW],Inhibition (%),[1],53.926 ± 7.634 %
same,OD,[1],0.460 ± 0.076
same,Inhibition (%),[2],53.060 ± 1.911 %
same,OD,[2],0.389 ± 0.016
same,Inhibition (%),[3],50.988 ± 3.897 %
same,OD,[3],0.422 ± 0.034
same,Inhibition (%),[4],49.268 ± 2.531 %
same,OD,[4],0.474 ± 0.024
same,Inhibition (%),[5],36.042 ± 2.134 %
same,OD,[5],0.855 ± 0.029
same,Inhibition (%),[6],52.950 ± 2.023 %
same,OD,[6],0.508 ± 0.022
same,Inhibition (%),[7],54.560 ± 3.675 %
same,OD,[7],0.576 ± 0.047
same,Inhibition (%),[8],53.399 ± 3.971 %
same,OD,[8],0.471 ± 0.040
same,Inhibition (%),[9],47.264 ± 5.692 %
same,OD,[9],0.578 ± 0.062
same,Inhibition (%),[10],49.572 ± 4.128 %
same,OD,[10],0.491 ± 0.040
same,Inhibition (%),[11],50.213 ± 2.165 %
same,OD,[11],0.507 ± 0.022
same,Inhibition (%),[12],49.114 ± 2.626 %
same,OD,[12],0.479 ± 0.025
same,Inhibition (%),[13],46.311 ± 4.884 %
same,OD,[13],0.466 ± 0.042
same,Inhibition (%),[14],47.820 ± 1.486 %
same,OD,[14],0.638 ± 0.018
same,Inhibition (%),[15],51.916 ± 0.690 %
same,OD,[15],0.464 ± 0.007
same,in vivo tumorigenicity of CAL27 cells compared with normal saline control,[16],significantly inhibit
same,Inhibition (%),[17],51.562 ± 4.780 %
same,OD,[17],0.460 ± 0.045
same,Inhibition (%),[18],44.307 ± 3.404 %
same,OD,[18],0.602 ± 0.037
same,Inhibition (%),[19],53.092 ± 4.138 %
same,OD,[19],0.432 ± 0.038
same,Inhibition (%),[20],53.329 ± 3.884 %
same,OD,[20],0.458 ± 0.038
same,Inhibition (%),[21],50.805 ± 2.422 %
same,OD,[21],0.479 ± 0.024
same,Inhibition (%),[22],50.542 ± 4.982 %
same,OD,[22],0.486 ± 0.049
same,Inhibition (%),[23],52.544 ± 2.562 %
same,OD,[23],0.435 ± 0.024
